# Species on record: Rattus norvegicus
# Test: Open TG-GATES - Regimen: Daily Repeat
# Format: toxicity, organism-based, Sprague-Dawley
# Parameters: regimen Daily Repeat, gender Male, age 6 weeks
# Conditions: in vivo, po, route gavage; for gamma-GTP / ALP / ALT / AST / BUN / CRE / Ca / Cl / DBIL / GLC / IP / K / LDH / Na / PL / RALB / TBIL / TC / TG / TP: tissue Plasma; for APTT / Bas / Eos / Fbg / Ht / Lym / MCH / MCHC / MCV / Mono / Neu / PT / Plat / RBC / Ret / WBC: tissue Blood; for KIDNEY_L / KIDNEY_R / KIDNEY_TOTAL: tissue Kidney; for LIVER: tissue Liver
# [1] = 30 mg/kg, 72 h, dose level Middle, time 3 day
# [2] = 30 mg/kg, […], dose level Middle, time 7 day
# [3] = 30 mg/kg, […], dose level Middle, time 14 day
# [4] = 30 mg/kg, […], dose level Middle, time 28 day
compound,measurement,setting,value
Cc1cccc(Nc2cc(Cl)nc(SCC(=O)O)n2)c1C [PIRINIXIC ACID],gamma-GTP,"10 mg/kg, […], dose level Low, time 28 day",1.2 IU/L
same,TERMINAL_BW,[1],229.5 g
same,APTT,[1],15.8 s
same,Bas,[1],0%
same,Eos,[1],0.8%
same,Fbg,[1],199.8 mg/dL
same,Ht,[1],39.5%
same,Lym,[1],71.6%
same,MCH,[1],21.7 pg
same,MCHC,[1],34.3%
same,MCV,[1],63.4 fL
same,Mono,[1],3.2%
same,Neu,[1],23.8%
same,PT,[1],12.4 s
same,Plat,[1],106.4 x10_4/uL
same,RBC,[1],623.8 x10_4/ul
same,Ret,[1],5.5%
same,WBC,[1],85.4 x10_2/uL
same,KIDNEY_L,[1],1 g
same,KIDNEY_R,[1],1 g
same,KIDNEY_TOTAL,[1],2 g
same,LIVER,[1],15.1 g
same,ALP,[1],1953.2 IU/L
same,ALT,[1],77.6 IU/L
same,AST,[1],112 IU/L
same,BUN,[1],14 mg/dL
same,CRE,[1],0.2 mg/dL
same,Ca,[1],10.7 mg/dL
same,Cl,[1],106.4 meq/L
same,DBIL,[1],0.02 mg/dL
same,GLC,[1],192.6 mg/dL
same,IP,[1],7.1 mg/dL
same,K,[1],4 meq/L
same,LDH,[1],167 IU/L
same,Na,[1],143.6 meq/L
same,PL,[1],106.2 mg/dL
same,RALB,[1],2.6 g/dL
same,TBIL,[1],0.026 mg/dL
same,TC,[1],51 mg/dL
same,TG,[1],31.4 mg/dL
same,TP,[1],5.2 g/dL
same,gamma-GTP,[1],1 IU/L
same,TERMINAL_BW,[2],270.6 g
same,TERMINAL_BW,[3],309.3 g
same,TERMINAL_BW,[4],373.2 g
same,APTT,[2],18 s
same,Bas,[2],0%
same,Eos,[2],0.8%
same,Fbg,[2],230.8 mg/dL
same,Ht,[2],37.9%
same,Lym,[2],76.6%
same,MCH,[2],22.1 pg
same,MCHC,[2],34%
same,MCV,[2],64.9 fL
same,Mono,[2],3.2%
same,Neu,[2],19%
same,PT,[2],12.7 s
same,Plat,[2],115.8 x10_4/uL
same,RBC,[2],585.4 x10_4/ul
same,Ret,[2],5.5%
same,WBC,[2],114.2 x10_2/uL
same,APTT,[3],16.4 s
same,Bas,[3],0%
same,Eos,[3],1%
same,Fbg,[3],214 mg/dL
same,Ht,[3],38.2%
same,Lym,[3],76.8%
same,MCH,[3],21.1 pg
same,MCHC,[3],34.8%
same,MCV,[3],60.5 fL
same,Mono,[3],3.6%
same,Neu,[3],18.2%
same,PT,[3],12.8 s
same,Plat,[3],136.3 x10_4/uL
same,RBC,[3],631.8 x10_4/ul
same,Ret,[3],4.3%
same,WBC,[3],121.9 x10_2/uL
same,APTT,[4],15.2 s
same,Bas,[4],0%
same,Eos,[4],1%
same,Fbg,[4],223.8 mg/dL
same,Ht,[4],39.5%
same,Lym,[4],78%
same,MCH,[4],19.6 pg
same,MCHC,[4],34.9%
same,MCV,[4],56.2 fL
same,Mono,[4],3%
same,Neu,[4],17.6%
same,PT,[4],12.4 s
same,RBC,[4],703.4 x10_4/ul
same,Ret,[4],3.3%
same,WBC,[4],108.3 x10_2/uL
same,KIDNEY_L,[2],1.2 g
same,KIDNEY_R,[2],1.1 g
same,KIDNEY_TOTAL,[2],2.3 g
same,KIDNEY_L,[3],1.4 g
same,KIDNEY_R,[3],1.3 g
same,KIDNEY_TOTAL,[3],2.7 g
same,KIDNEY_L,[4],1.5 g
same,KIDNEY_R,[4],1.5 g
same,KIDNEY_TOTAL,[4],3 g
same,LIVER,[2],21.7 g
same,LIVER,[3],25.2 g
same,LIVER,[4],29.4 g
same,ALP,[2],1797.4 IU/L
same,ALT,[2],53 IU/L
same,AST,[2],71.8 IU/L
same,BUN,[2],19.4 mg/dL
same,CRE,[2],0.2 mg/dL
same,Ca,[2],11.2 mg/dL
same,Cl,[2],103 meq/L
same,DBIL,[2],0.014 mg/dL
same,GLC,[2],191.8 mg/dL
same,IP,[2],7 mg/dL
same,K,[2],4.1 meq/L
same,LDH,[2],180.2 IU/L
same,Na,[2],142.2 meq/L
same,PL,[2],139 mg/dL
same,RALB,[2],2.9 g/dL
same,TBIL,[2],0.032 mg/dL
same,TC,[2],71.6 mg/dL
same,TG,[2],46 mg/dL
same,TP,[2],6.1 g/dL
same,gamma-GTP,[2],1 IU/L
same,ALP,[3],1895.2 IU/L
same,ALT,[3],48.2 IU/L
same,AST,[3],66.6 IU/L
same,BUN,[3],19.2 mg/dL
same,CRE,[3],0.2 mg/dL
same,Ca,[3],10.5 mg/dL
same,Cl,[3],102.6 meq/L
same,DBIL,[3],0.016 mg/dL
same,GLC,[3],194.6 mg/dL
same,IP,[3],7.1 mg/dL
same,K,[3],3.9 meq/L
same,LDH,[3],114 IU/L
same,Na,[3],141.8 meq/L
same,PL,[3],144.4 mg/dL
same,RALB,[3],2.9 g/dL
same,TBIL,[3],0.034 mg/dL
same,TC,[3],69.6 mg/dL
same,TG,[3],51.6 mg/dL
same,TP,[3],6.1 g/dL
same,gamma-GTP,[3],1.4 IU/L
same,ALP,[4],1970.8 IU/L
same,ALT,[4],47.2 IU/L
same,AST,[4],62.4 IU/L
same,BUN,[4],18.2 mg/dL
same,CRE,[4],0.2 mg/dL
same,Ca,[4],10.7 mg/dL
same,Cl,[4],102.8 meq/L
same,DBIL,[4],0.012 mg/dL
same,GLC,[4],189.2 mg/dL
same,IP,[4],7.2 mg/dL
same,K,[4],3.7 meq/L
same,LDH,[4],111.4 IU/L
same,Na,[4],141.6 meq/L
same,PL,[4],149 mg/dL
same,RALB,[4],3 g/dL
same,TBIL,[4],0.05 mg/dL
same,TC,[4],70.6 mg/dL
same,TG,[4],55.4 mg/dL
same,TP,[4],6.5 g/dL
